Measured values taken from US8058475B2, “Substituted cyclohexylmethyl compounds” (Gruenenthal GmbH, priority 2005, dated 2011).
Where a name gives a salt, the structure may show the parent alone. Read-outs that look alike come from different tables or passages of the source.

Experiments:
[1] = molecular target: human μ-opiate receptor (Homo sapiens, UniProt P35372); assay: Affinity for the human μ-opiate receptor ([3H]-naloxone displacement, SPA, CHO-K1 membrane preparation); type: binding; details: for inhibition at 1 µM: read-out: μ-Opioid receptor, % inhibition [1 μM]; for Ki: read-out: μ-Opioid receptor, Ki
human μ-opiate receptor, sequence (P35372 whole entry): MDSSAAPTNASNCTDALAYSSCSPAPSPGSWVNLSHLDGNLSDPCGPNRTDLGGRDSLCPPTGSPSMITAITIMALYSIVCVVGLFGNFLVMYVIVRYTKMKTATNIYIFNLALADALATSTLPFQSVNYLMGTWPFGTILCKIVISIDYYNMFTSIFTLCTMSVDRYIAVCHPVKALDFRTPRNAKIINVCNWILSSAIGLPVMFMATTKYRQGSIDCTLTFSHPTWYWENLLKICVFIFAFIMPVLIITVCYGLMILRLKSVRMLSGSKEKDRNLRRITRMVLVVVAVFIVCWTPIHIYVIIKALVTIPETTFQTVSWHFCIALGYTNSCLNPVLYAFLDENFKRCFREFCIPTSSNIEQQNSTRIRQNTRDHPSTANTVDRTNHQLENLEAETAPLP

[2] = molecular target: T1, Serotonin (5HT) reuptake (Rattus norvegicus, UniProt P31652); assay: Serotonin (5HT) reuptake inhibition in rat brain synaptosomes (P2 fraction); type: biochemical; details: for inhibition at 10 µM: read-out: Serotonin reuptake, % inhibition [10 μM]
T1 construct: synaptosomes are freshly isolated from areas of rat brain; from tissue; host or cells: rat brain synaptosomes (P2 fraction)
T1 sequence (P31652 whole entry): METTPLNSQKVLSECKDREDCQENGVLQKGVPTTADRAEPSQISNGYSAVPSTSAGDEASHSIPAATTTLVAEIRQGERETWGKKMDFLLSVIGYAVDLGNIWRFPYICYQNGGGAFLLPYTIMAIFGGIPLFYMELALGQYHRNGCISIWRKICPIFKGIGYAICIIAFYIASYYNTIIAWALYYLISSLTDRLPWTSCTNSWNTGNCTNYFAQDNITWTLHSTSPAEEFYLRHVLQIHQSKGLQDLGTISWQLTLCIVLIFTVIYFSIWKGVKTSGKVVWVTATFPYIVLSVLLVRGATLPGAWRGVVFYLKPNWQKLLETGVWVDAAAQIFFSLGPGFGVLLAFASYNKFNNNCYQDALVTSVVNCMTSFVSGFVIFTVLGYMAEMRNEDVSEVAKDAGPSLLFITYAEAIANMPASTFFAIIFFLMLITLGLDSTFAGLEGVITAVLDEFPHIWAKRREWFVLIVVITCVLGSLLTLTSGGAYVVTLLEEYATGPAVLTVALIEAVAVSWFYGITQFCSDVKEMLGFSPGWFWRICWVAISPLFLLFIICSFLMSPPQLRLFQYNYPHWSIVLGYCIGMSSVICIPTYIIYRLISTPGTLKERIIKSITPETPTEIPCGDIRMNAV
Source text: (§1) Noradrenaline (NA) and Serotonin (5HT) Reuptake Inhibition
(§2) In order to be able to carry out these studies in vitro, synaptosomes are freshly isolated from areas of rat brain. A so-called “P2” fraction prepared by the method of Gray and Whittaker (E. G. Gray and V. P. Whittaker (1962) J. Anat. 76, 79-88) is used in each case. For the NA uptake, these vesicular particles are isolated from the hypothalamus of male rat brains.
(§3) A detailed description of the method will be found in the literature (M. Ch. Frink, H. H. Hennies, W. Englberger, M. Haurand and B. Wilffert (1996) Arzneim.-Forsch./Drug Res. 46 (III), 11, 1029-1036).

[3] = molecular target: T2, Noradrenaline (NA) reuptake (Rattus norvegicus, UniProt Q63380); assay: Noradrenaline (NA) reuptake inhibition in rat brain synaptosomes (hypothalamus, P2 fraction); type: biochemical
T2 construct: synaptosomes are freshly isolated from areas of rat brain; from tissue; host or cells: rat hypothalamus synaptosomes (P2 fraction)
T2 sequence (Q63380 1-617): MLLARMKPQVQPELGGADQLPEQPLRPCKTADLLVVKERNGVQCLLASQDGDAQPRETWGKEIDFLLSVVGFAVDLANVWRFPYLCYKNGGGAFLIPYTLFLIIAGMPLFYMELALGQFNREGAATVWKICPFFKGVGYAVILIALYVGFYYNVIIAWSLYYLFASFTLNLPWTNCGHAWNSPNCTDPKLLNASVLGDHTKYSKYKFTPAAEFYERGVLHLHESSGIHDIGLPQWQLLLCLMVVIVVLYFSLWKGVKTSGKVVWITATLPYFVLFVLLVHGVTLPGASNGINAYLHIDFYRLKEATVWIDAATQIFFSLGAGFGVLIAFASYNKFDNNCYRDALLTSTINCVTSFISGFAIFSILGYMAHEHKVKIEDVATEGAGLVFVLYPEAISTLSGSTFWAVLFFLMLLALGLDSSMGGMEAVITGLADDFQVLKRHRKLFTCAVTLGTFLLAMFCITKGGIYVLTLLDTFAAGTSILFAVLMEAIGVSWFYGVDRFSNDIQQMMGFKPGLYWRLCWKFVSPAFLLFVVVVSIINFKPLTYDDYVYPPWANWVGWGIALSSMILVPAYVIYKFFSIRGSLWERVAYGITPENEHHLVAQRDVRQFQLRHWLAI
Source text: as §1, §2, §3

[4] = 1 μM test substance, inhibition of specific [3H]-naloxone binding
[5] = read-out: NA reuptake, % inhibition [10 μM]
[6] = read-out: Na reuptake, % inhibition [10 μM]

Row | SMILES | inhibition at 1 µM [1, 4] [%] | inhibition at 10 µM [2] [%] | inhibition at 10 µM [3, 5] [%] | Ki [1] [nM] | further results
1 | CN(C)C(c1cccc(F)c1)C1CCC(CO)CC1 (stereo not drawn) [compound 119, {4-[dimethylamino-(3-fluorophenyl)-methyl]-cyclohexyl}-methanol] | 43 | 88 | 91 |  | 
2 | CN(C)C(c1cccs1)C1CCC(CO)CC1 (stereo not drawn) [compound 121, [4-(dimethylamino-thiophen-2-yl-methyl)-cyclohexyl]-methanol] | 61 | 74 | 66 |  | 
3 | CN(C)C(c1ccc(F)cc1)C1CCC(CC=O)CC1 (stereo not drawn) [compound 49, {4-[Dimethylamino-(4-fluorophenyl)-methyl]-cyclohexyl}-acetaldehyde] | 34 | 93 | 97 |  | 
4 | CN(C)C(c1cccs1)C1CCC(N)CC1 (stereo not drawn) [compound 25, 4-(dimethylamino-thiophen-2-yl-methyl)-cyclohexylamine] | 74 | 71 | 84 |  | Ki ([1]; [3H]-naloxone, human μ-opiate receptor membranes): 260 nM
5 | CCOC(=O)C=C1CCC(C(c2ccc(F)cc2)N(C)C)CC1 (stereo not drawn) [compound 126, {4-[dimethylamino-(4-fluorophenyl)-methyl]-cyclohexylidene}-acetic acid ethyl ester] | 35 | 86 | 81 |  | 
6 | CN(C)C(c1ccccc1)C1CCC(NS(=O)(=O)c2ccccc2)CC1 (stereo not drawn) [compound 110, N-(4-((dimethylamino)(phenyl)methyl)cyclohexyl)benzenesulfonamide hydrochloride] |  | 86 | 62 |  | inhibition at 1 µM ([1]; 1 μM, sulfonamides (Table 17)): 93%; Ki ([1]; sulfonamides (Table 17)): 25 nM
7 | CN(C)C(c1ccccc1)C1CCC(N(Cc2ccccc2)C(=O)c2ccccc2)CC1 (stereo not drawn) [compound 104, N-benzyl-N-(4-((dimethylamino)(phenyl)methyl)cyclohexyl)benzamide hydrochloride] |  | 90 |  | 14 | inhibition at 1 µM [1]: 92%; Ki [2]: 440 nM; Ki [3]: 320 nM; inhibition at 10 µM [3, 6]: 92%
8 | CN(C)C(c1ccc(Cl)cc1)C1CCC(CO)CC1 (stereo not drawn) [compound 120, {4-[(4-chlorophenyl)-dimethylamino-methyl]-cyclohexyl}-methanol] | 51 | 79 | 93 |  | 
9 | CN(C)C(c1ccccc1)C1CCC(CCCO)CC1 (stereo not drawn) [compound 134, 3-[4-(dimethylamino-phenyl-methyl)-cyclohexyl]-propan-1-ol] | 45 | 86 | 90 |  | 
10 | CN(C)C(c1ccccc1)C1CCC(CCN)CC1 (stereo not drawn) [compound 48] |  |  |  |  | μ-Opioid receptor, % inhibition [1 μM] [1, 4]: 67%; Serotonin reuptake, % inhibition [10 μM] ([2]; 10 μM, rat brain synaptosomes): 95%; NA reuptake, % inhibition [10 μM] ([3]; 10 μM, rat brain synaptosomes (hypothalamus)): 100%
11 | CN(C)C(c1ccccc1)C1CCC(NCCc2ccccc2)CC1 (stereo not drawn) [compound 84, 4-((dimethylamino)(phenyl)methyl)-N-phenethylcyclohexanamine hydrochloride] | 95 | 76 | 93 | 12 | 
12 | CN(C)C(c1ccccc1)C1CCC(C=O)CC1 (stereo not drawn) [compound 28, 4-(Dimethylamino-phenyl-methyl)-cyclohexane-carbaldehyde] | 69 | 85 | 84 |  | 
13 | CCC(CC)C(=O)N(c1ccccc1)C1CCC(C(c2ccccc2)N(C)C)CC1 (stereo not drawn) [compound 105, N-(4-((dimethylamino)(phenyl)methyl)cyclohexyl)-2-ethyl-N-phenylbutanamide hydrochloride] |  | 85 |  | 20 | inhibition at 1 µM [1]: 100%; inhibition at 10 µM [3, 6]: 88%
14 | CN(C)C(c1ccccc1)C1CCC(Nc2ccccc2)CC1 (stereo not drawn) [compound 92, N-(4-((dimethylamino)(phenyl)methyl)cyclohexyl)benzenamine hydrochloride] | 91 | 69 | 75 | 17 | 
15 | COc1ccc(N(C(C)=O)C2CCC(C(c3ccccc3)N(C)C)CC2)cc1 (stereo not drawn) [compound 99, N-(4-((dimethylamino)(phenyl)methyl)cyclohexyl)-N-(4-methoxyphenyl)-acetamide hydrochloride] |  | 83 |  | 470 | inhibition at 1 µM [1]: 77%; Ki [2]: 540 nM; inhibition at 10 µM [3, 6]: 75%
16 | CN(C)C(c1ccccc1)C1CCC(NC(=O)Nc2ccc(Br)cc2)CC1 (stereo not drawn) [compound 81, 1-(4-bromophenyl)-3-(4-((dimethylamino)(phenyl)methyl)cyclohexyl)urea] | 95 | 97 | 97 | 33 | 
17 | CN(C)C(c1cccc(F)c1)C1CCC(CN)CC1 (stereo not drawn) [compound 36, [(4-aminomethyl-cyclohexyl)-(3-fluorophenyl)-methyl]-dimethylamine] | 68 | 89 | 93 |  | Ki [2]: 96 nM; Ki [3]: 110 nM
18 | CCOC(=O)C=CC1CCC(C(c2ccccc2)N(C)C)CC1 (stereo not drawn) [compound 132, 3-[4-(dimethylamino-phenyl-methyl)-cyclohexyl]-acrylic acid ethyl ester] | 91 | 86 | 84 | 120 | Ki [2]: 420 nM; Ki [3]: 590 nM
19 | CN(C)C(c1ccc(Cl)cc1)C1CCC(CN)CC1 (stereo not drawn) [compound 39, [(4-aminomethyl-cyclohexyl)-(4-chlorophenyl)-methyl]-dimethylamine] | 56 | 87 | 97 |  | 
20 | CN(C)C(c1ccccc1)C1CCC(CC=O)CC1 (stereo not drawn) [compound 46, [4-(Dimethylamino-phenyl-methyl)-cyclohexyl]-acetaldehyde] | 75 | 92 | 95 |  | 
21 | CN(C)C(c1ccc(F)cc1)C1CCC(CCCO)CC1 (stereo not drawn) [compound 137, 3-{4-[dimethylamino-(4-fluorophenyl)-methyl]-cyclohexyl}-propan-1-ol] | 13 | 89 | 93 |  | 
22 | COc1ccc(OC)c(C2(O)CCC(C(c3ccccc3)N(C)C)CC2)c1 (stereo not drawn) [compound 149, 1-(2,5-Dimethoxyphenyl)-4-((dimethylamino)(phenyl)methyl)cyclohexanol hydrochloride] | 82 | 85 | 75 |  | 
23 | CN(C)C(c1ccccc1)C1CCC(OCc2ccccc2)CC1 (stereo not drawn) [compound 144, 4-(benzyloxy)cyclohexyl)-N,N-dimethyl(phenyl)methanamine hydrochloride] | 81 | 80 | 75 | 120 | 
24 | CN(C)C(c1cccs1)C1CCC(CCN)CC1 (stereo not drawn) [compound 69, 2-[4-(dimethylamino-thiophen-2-yl-methyl)-cyclohexyl]-ethylamine] | 61 | 83 | 98 |  | 
25 | CN(C)C(CCc1ccccc1)C1CCC(CCCO)CC1 (stereo not drawn) [compound 143, 3-[4-(1-dimethylamino-3-phenyl-propyl)-cyclohexyl]-propan-1-ol] | 24 | 90 | 100 |  | 
26 | CN(C)C(c1cccc(F)c1)C1CCC(CCO)CC1 (stereo not drawn) [compound 131, 2-{4-[dimethylamino-(3-fluorophenyl)-methyl]-cyclohexyl}-ethanol] | 68 | 91 | 89 |  | 
27 | CCC(=O)N(CCCCc1ccccc1)C1CCC(C(c2ccccc2)N(C)C)CC1 (stereo not drawn) [compound 97, N-(4-((dimethylamino)(phenyl)methyl)cyclohexyl)-N-(4-phenylbutyl)propionamide hydrochloride] |  | 76 |  | 3.7 | inhibition at 1 µM [1]: 97%; Ki [2]: 990 nM; Ki [3]: 700 nM; inhibition at 10 µM [3, 6]: 94%
28 | CN(C)C(c1ccccc1)C1CCC(CCO)CC1 (stereo not drawn) [compound 125, 2-[4-(dimethylamino-phenyl-methyl)-cyclohexyl]-ethanol] | 62 | 82 | 86 |  | 
29 | COc1ccc(NC(=O)NC2CCC(C(c3ccccc3)N(C)C)CC2)cc1 (stereo not drawn) [compound 82, 1-(4-((dimethylamino)(phenyl)methyl)cyclohexyl)-3-(4-methoxyphenyl)urea] | 92 | 98 | 98 | 190 | Ki [2]: 110 nM; Ki [3]: 120 nM
30 | CN(C)C(c1ccccc1)C1CCC(NS(=O)(=O)c2ccc(Cl)cc2)CC1 (stereo not drawn) [compound 106, 4-chloro-N-(4-((dimethylamino)(phenyl)methyl)cyclohexyl)benzene-sulfonamide hydrochloride] |  | 83 | 68 |  | inhibition at 1 µM ([1]; 1 μM, sulfonamides (Table 17)): 96%; Ki ([1]; sulfonamides (Table 17)): 3.7 nM
